Our source for the TGI and GI50 values is PubChem BioAssay (NCI).

Assay in all cases: NCI anticancer screen, dose series, 48 h
Experiment [1] relates to K-562 leukemia.
The subject of experiment [2] is SF-539 CNS.
The test system of experiment [3] is SF-295 CNS.
The test system of experiment [4] is ACHN renal.
The test system of experiment [5] is SK-MEL-28 melanoma.
In experiment [6] the test system is NCI-H460 lung.
For experiment [7], the system named is MCF7 breast.
Experiment [8] concerns SN12C renal.
Experiment [9] concerns OVCAR-4 ovarian.
In experiment [10] the test system is NCI/ADR-RES ovarian.
The test system of experiment [11] is OVCAR-3 ovarian.
Experiment [12] has as its system HCT-15 colon.
In experiment [13] the test system is U251 CNS.
For experiment [14], the system named is NCI-H522 lung.
Experiment [15] relates to SNB-19 CNS.
Experiment [16] deals with TK-10 renal.
Experiment [17] concerns A549 NSCLC.
Experiment [18] concerns UO-31 renal.
For experiment [19], the system named is HOP-92 NSCLC.

SMILES strings stand for the structures. Where “and” joins values, the source holds several entries; their conditions need not be identical. Equal entries are not always repeated.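 Where inhibition never reached the appropriate level, the endpoint shown equals the highest concentration tested. Otherwise, values were interpolated linearly from a five-concentration, 48-hour dose response in 96-well plates. GI50: concentration for 50% inhibition of growth. TGI is the concentration that stops growth completely.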 A value given as a limit tells only on which side of the number the result lay.

Turning to `CN(Cc1cccc2ccccc12)Cc1cccc2ccccc12`, the TGI in [1] is greater than 100 µM; in experiment [2], 59.6 µM; in experiment [3], greater than 100 µM; in experiment [4], greater than 100 µM; in experiment [5], greater than 100 µM; in experiment [6], greater than 100 µM. Also, the TGI in [7] is 45 µM; in [8], greater than 100 µM; in experiment [9], greater than 100 µM; in experiment [10], greater than 100 µM; in [11], greater than 100 µM; in experiment [12] it was greater than 100 µM. The TGI in experiment [13] was 49.6 µM; in [14] it was 45.4 µM; in [15] it was greater than 100 µM; in experiment [16], greater than 100 µM; in experiment [17], greater than 100 µM; in experiment [18], greater than 100 µM.

`Nc1ccc(S(=O)(=O)Nc2ccc(Nc3c4ccccc4nc4ccccc34)cc2)cc1`: the TGI was 17 µM in [1]; 0.362 µM in experiment [2]; 1.03 µM in [3]; 0.149 µM in experiment [4]; 20.8 µM in [5]; 2.11 µM in experiment [6]. For the same compound, the TGI was 16 µM in experiment [7]; 0.628 µM in [8]; 17.1 µM in [9]; 19.8 µM in [10]; 4.57 µM in [11]; 17.7 µM in experiment [12]. Further, the TGI in experiment [13] was found to be 4.94 µM; in [19] it was 4.84 µM; in [14], 3.95 µM; in experiment [15], 9.54 µM; in experiment [16], 9.55 µM; in experiment [17], 0.919 µM. Also, the TGI in experiment [18] stood at 4.24 µM.

For `N=[N+]=CC(=O)CCC(NC(=O)C(CCC(=O)C=[N+]=N)NC(=O)CCC(N)C(=O)O)C(=O)O` (configuration not stated), the TGI in experiment [1], in [2], in [3], in experiment [5], in experiment [6] and in experiment [7] was greater than 100 µM each time. Also, the TGI in [8], in experiment [9], in experiment [10], in [11], in [12] and in experiment [13] was greater than 100 µM in each case. In addition, the TGI in experiment [19], in experiment [14], in experiment [15], in [17] and in experiment [18] was greater than 100 µM in each case.

Regarding `Oc1ccc(Cc2nccc3cc(O)c(O)cc23)cc1O`, the TGI in experiment [1], in [2], in experiment [3], in experiment [4], in [5] and in [6] was greater than 100 µM each time. Further, the TGI is 49.6 µM in [7]; greater than 100 µM in experiment [8]; greater than 100 µM in [9]; greater than 100 µM in [10]; greater than 100 µM in [11]; greater than 100 µM in [12]. Moreover, the TGI in [13], in [19], in experiment [14], in experiment [15], in experiment [16] and in experiment [17] was greater than 100 µM each time. Besides, the TGI in experiment [18] was greater than 100 µM.

Take `CC(C)(C)NCC(O)c1ccc(O)c(CO)n1` (configuration not stated): the TGI in experiment [2], in experiment [3], in [4], in experiment [5], in experiment [6] and in experiment [7] was greater than 100 µM in each case. The TGI in experiment [8], in experiment [9], in experiment [10], in experiment [11], in [12] and in experiment [13] was greater than 100 µM each time. Also, the TGI in experiment [19], in experiment [14], in [15], in experiment [16], in [17] and in experiment [18] was greater than 100 µM throughout.

In the case of `C[n+]1ccc(Nc2ccc(NC(=O)c3ccc(Nc4cc[n+](C)c5ccc([N+](=O)[O-])cc45)cc3[N+](=O)[O-])cc2)cc1`, the TGI is greater than 77.6 µM in experiment [1]; 68.5 µM and > 66.7 µM in [2]; 63.6 µM and 60 µM in experiment [3]; greater than 100 µM in [4]; 74.1 µM and 62.2 µM in [5]; greater than 100 µM in experiment [6]. The TGI in experiment [7] is greater than 58.3 µM; in experiment [8], greater than 100 µM; in experiment [9] it was greater than 100 µM; in experiment [10], greater than 100 µM; in experiment [11], 54.6 µM and 54.3 µM; in experiment [12], greater than 100 µM. Moreover, the TGI in [13] is greater than 84.6 µM; in experiment [19] it was 81.7 µM and > 77.1 µM; in experiment [14], greater than 100 µM; in experiment [15], greater than 100 µM; in [16], greater than 100 µM; in experiment [17], greater than 100 µM. For the same compound, the TGI in experiment [18] was 98.9 µM and > 79.4 µM. In experiment [7], the GI50 was 1.25 µM and 3.34 µM.

Turning to `C[n+]1c2ccccc2c(NC(CS)C(=O)O)c2ccccc21` (configuration not stated), the TGI in experiment [1] is greater than 100 µM; in [2], 44 µM; in experiment [3], 77.7 µM; in experiment [4], greater than 100 µM; in [6], greater than 100 µM; in [8], greater than 100 µM. Further, the TGI was greater than 100 µM in [9]; 71.9 µM in experiment [11]; greater than 100 µM in experiment [12]; 89.4 µM in experiment [13]; 60.2 µM in experiment [19]; 42.3 µM in experiment [14]. Besides, the TGI is greater than 100 µM in [15], greater than 100 µM in experiment [16], 70.1 µM in experiment [17] and 66.6 µM in [18].
